Results as given in patent US10774087B2, “Sulfonamide derivative having coumarin skeleton” (Daiichi Sankyo Company, Limited, priority 2016, dated 2020).
Structures can show the parent of a compound that is named as a salt. Where two headings read alike, the source gives them in different places.

Key:
[1] = test system: MDA-MB-231 luc cells; experiment: Growth inhibition test using MDA-MB-231 luc cells; type: cell-based, human
[2] = target: T1, recombinant MTHFD2 protein (Homo sapiens, UniProt P13995); experiment: MTHFD2 dehydrogenase assay; type: biochemical
T1 construct: containing recombinant MTHFD2 protein
T1 sequence (P13995 36-350): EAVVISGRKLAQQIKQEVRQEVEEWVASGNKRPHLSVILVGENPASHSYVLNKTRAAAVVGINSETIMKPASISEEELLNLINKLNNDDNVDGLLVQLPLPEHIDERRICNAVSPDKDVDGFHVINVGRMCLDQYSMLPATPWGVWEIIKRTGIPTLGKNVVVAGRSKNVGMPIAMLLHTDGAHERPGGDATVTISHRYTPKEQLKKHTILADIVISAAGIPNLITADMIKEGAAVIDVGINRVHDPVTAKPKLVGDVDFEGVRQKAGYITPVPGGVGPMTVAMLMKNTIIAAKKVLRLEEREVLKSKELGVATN

[3] = target: T2, recombinant MTHFD1 protein (dehydrogenase domain, alone) (Homo sapiens, UniProt P11586); experiment: MTHFD1 dehydrogenase assay; type: biochemical
T2 construct: recombinant MTHFD1 protein (dehydrogenase domain, alone)
T2 sequence (P11586 2-291 limits assumed): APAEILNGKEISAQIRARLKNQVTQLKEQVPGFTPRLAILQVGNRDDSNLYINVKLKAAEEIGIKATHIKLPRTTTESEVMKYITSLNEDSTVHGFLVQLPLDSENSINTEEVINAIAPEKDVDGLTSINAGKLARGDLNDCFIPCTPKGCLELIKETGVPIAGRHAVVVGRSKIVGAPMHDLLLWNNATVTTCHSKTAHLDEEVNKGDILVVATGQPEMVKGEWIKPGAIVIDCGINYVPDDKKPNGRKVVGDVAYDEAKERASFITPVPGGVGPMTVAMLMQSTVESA

[4] = human breast cancer MDA-MB-231 luc, Day 3, cell-titer Glo, Day 0 value subtracted, read-out: GI50
[5] = 200 μM NAD, room temperature 30 minutes, absorbance 355 nm
[6] = 165.4 μM NADP, room temperature 30 minutes, absorbance 355 nm

| GI50 [1, 4] | IC50 [3, 6] | Structure (SMILES) | IC50 [2, 5] | GI50 ([1]; Homo sapiens, MDA-MB-231) | IC50 [2] | IC50 [3] |
| --- | --- | --- | --- | --- | --- | --- |
| 17 nM | 220 nM | CCS(=O)(=O)Nc1ccc(C(=O)N2CCc3c(c(=O)oc4c(C)c(N5CCN(C)[C@@H](C)C5)cc(C)c34)C2)cc1OC(F)(F)F [Example 10, N-[4-({8-[(3S)-3,4-Dimethylpiperazin-1-yl]-7,10-dimethyl-5-oxo-1,5-dihydro-2H-chromeno[3,4-c]pyridin-3(4H)-yl}carbonyl)-2-(trifluoromethoxy)phenyl]ethanesulfonamide] | 2.7 nM |  |  |  |
|  |  | Cc1c(N2CCN(C)[C@@H](C)C2)ccc2c3c(c(=O)oc12)CN(C(=O)c1ccc(NS(C)(=O)=O)c(C(F)(F)F)c1)CC3 [Example 6, N-[4-({8-[(3S)-3,4-Dimethylpiperazin-1-yl]-7-methyl-5-oxo-1,5-dihydro-2H-chromeno[3,4-c]pyridin-3(4H)-yl}carbonyl)-2-(trifluoromethyl)phenyl]methanesulfonamide] |  | 210 nM | 6.4 nM | 1500 nM |
|  |  | Cc1c(N2C[C@@H](C)N(C)[C@@H](C)C2)ccc2c3c(c(=O)oc12)CN(C(=O)c1ccc(NS(C)(=O)=O)c(Cl)c1)CC3 [Example 14, N-[2-Chloro-4-({7-methyl-5-oxo-8-[(3R,5S)-3,4,5-trimethylpiperazin-1-yl]-1,5-dihydro-2H-chromeno[3,4-c]pyridin-3(4H)-yl}carbonyl)phenyl]methanesulfonamide] | 37 nM | 780 nM |  |  |
|  |  | Cc1c(N2CCN(C)[C@@H](C)C2)ccc2c3c(c(=O)oc12)CN(C(=O)c1ccc(NS(C)(=O)=O)c(OC(F)(F)F)c1)CC3 [Example 5, N-[4-({8-[(3S)-3,4-Dimethylpiperazin-1-yl]-7-methyl-5-oxo-1,5-dihydro-2H-chromeno[3,4-c]pyridin-3(4H)-yl}carbonyl)-2-(trifluoromethoxy)phenyl]methanesulfonamide] |  | 140 nM |  |  |
|  |  | Cc1c(N2CCN(C)[C@@H](C)C2)cc(C)c2c3c(c(=O)oc12)CN(C(=O)c1ccc(NS(C)(=O)=O)c(OC(F)(F)F)c1)CC3 [Example 8, N-[4-({8-[(3S)-3,4-Dimethylpiperazin-1-yl]-7,10-dimethyl-5-oxo-1,5-dihydro-2H-chromeno[3,4-c]pyridin-3(4H)-yl}carbonyl)-2-(trifluoromethoxy)phenyl]methanesulfonamide] |  | 45 nM | 2.6 nM | 200 nM |
|  |  | Cc1c(N2CCN(C)[C@@H](C)C2)ccc2c3c(c(=O)oc12)CN(C(=O)c1ccc(NS(C)(=O)=O)c(Cl)c1)CC3 [Example 4, N-[2-Chloro-4-({8-[(3S)-3,4-dimethylpiperazin-1-yl]-7-methyl-5-oxo-1,5-dihydro-2H-chromeno[3,4-c]pyridin-3(4H)-yl}carbonyl)phenyl]methanesulfonamide] | 9.3 nM | 200 nM |  |  |
|  |  | Cc1c(N2CCN(C)CC2)ccc2c3c(c(=O)oc12)CN(C(=O)c1ccc(NS(C)(=O)=O)c(OC(F)(F)F)c1)CC3 [Example 3, N-[4-{[7-Methyl-8-(4-methylpiperazin-1-yl)-5-oxo-1,5-dihydro-2H-chromeno[3,4-c]pyridin-3(4H)-yl]carbonyl}-2-(trifluoromethoxy)phenyl]methanesulfonamide] | 21 nM | 380 nM |  |  |
| 1100 nM | 2200 nM | Cc1c(N2CCN(C)CC2)ccc2c3c(c(=O)oc12)CN(C(=O)c1ccc(NS(=O)(=O)C2CC2)c(Cl)c1)CC3 [Example 2, N-(2-Chloro-4-{[7-methyl-8-(4-methylpiperazin-1-yl)-5-oxo-1,5-dihydro-2H-chromeno[3,4-c]pyridin-3(4H)-yl]carbonyl}phenyl)cyclopropanesulfonamide] | 28 nM |  |  |  |
|  |  | Cc1c(N2CCN(C)[C@@H](C)C2)cc(C)c2c3c(c(=O)oc12)CN(C(=O)c1ccc(NS(C)(=O)=O)c(Cl)c1)CC3 [Example 7, N-[2-Chloro-4-({8-[(3S)-3,4-dimethylpiperazin-1-yl]-7,10-dimethyl-5-oxo-1,5-dihydro-2H-chromeno[3,4-c]pyridin-3(4H)-yl}carbonyl)phenyl]methanesulfonamide] |  | 100 nM | 4.4 nM | 560 nM |
|  |  | Cc1c(N2CCN(C)CC2)ccc2c3c(c(=O)oc12)CN(C(=O)c1ccc(NS(C)(=O)=O)c(Cl)c1)CC3 [Example 1, N-(2-chloro-4-{[7-methyl-8-(4-methylpiperazin-1-yl)-5-oxo-1,5-dihydro-2H-chromeno[3,4-c]pyridin-3(4H)-yl]carbonyl}phenyl)methanesulfonamide] | 48 nM | 940 nM |  |  |
|  |  | CCS(=O)(=O)Nc1ccc(C(=O)N2CCc3c(c(=O)oc4c(C)c(N5CCN(C)[C@@H](C)C5)ccc34)C2)cc1OC(F)(F)F [Example 9, N-[4-({8-[(3S)-3,4-Dimethylpiperazin-1-yl]-7-methyl-5-oxo-1,5-dihydro-2H-chromeno[3,4-c]pyridin-3(4H)-yl}carbonyl)-2-(trifluoromethoxy)phenyl]ethanesulfonamide] |  | 120 nM | 4.7 nM | 400 nM |
|  |  | Cc1c(N2CCN(C)C(C)(C)C2)ccc2c3c(c(=O)oc12)CN(C(=O)c1ccc(NS(C)(=O)=O)c(OC(F)(F)F)c1)CC3 [Example 12, N-[4-{[7-Methyl-5-oxo-8-(3,3,4-trimethylpiperazin-1-yl)-1,5-dihydro-2H-chromeno[3,4-c]pyridin-3(4H)-yl]carbonyl}-2-(trifluoromethoxy)phenyl]methanesulfonamide] |  | 66 nM | 75 nM | 710 nM |
|  |  | CC[C@H]1CN(c2ccc3c4c(c(=O)oc3c2C)CN(C(=O)c2ccc(NS(C)(=O)=O)c(OC(F)(F)F)c2)CC4)CCN1C [Example 11, N-[4-({8-[(3S)-3-Ethyl-4-methylpiperazin-1-yl]-7-methyl-5-oxo-1,5-dihydro-2H-chromeno[3,4-c]pyridin-3(4H)-yl}carbonyl)-2-(trifluoromethoxy)phenyl]methanesulfonamide] |  | 120 nM | 5.1 nM | 360 nM |

| Structure (SMILES) | GI50 [1, 4] | IC50 [3, 6] | IC50 [2, 5] | GI50 ([1]; Homo sapiens, MDA-MB-231) | IC50 [2] | IC50 [3] |
| --- | --- | --- | --- | --- | --- | --- |
| Cc1c(N2CCN[C@@H](C)C2)ccc2c3c(c(=O)oc12)CN(C(=O)c1ccc(NS(C)(=O)=O)c(OC(F)(F)F)c1)CC3 [Example 13, N-[4-({7-Methyl-8-[(3S)-3-methylpiperazin-1-yl]-5-oxo-1,5-dihydro-2H-chromeno[3,4-c]pyridin-3(4H)-yl}carbonyl)-2-(trifluoromethoxy)phenyl]methanesulfonamide hydrochloride] |  | 900 nM | 7.8 nM | 260 nM |  |  |
